What was measured:
cPLA2 = molecular target: T1, cPLA2 (Homo sapiens, UniProt P47712); experiment: Coumarin Assay (cPLA2 inhibition); assay type: biochemical; conditions: for inhibition at 24 µM: CONCENTRATION 24 micromolar
T1 sequence (P47712 1-749): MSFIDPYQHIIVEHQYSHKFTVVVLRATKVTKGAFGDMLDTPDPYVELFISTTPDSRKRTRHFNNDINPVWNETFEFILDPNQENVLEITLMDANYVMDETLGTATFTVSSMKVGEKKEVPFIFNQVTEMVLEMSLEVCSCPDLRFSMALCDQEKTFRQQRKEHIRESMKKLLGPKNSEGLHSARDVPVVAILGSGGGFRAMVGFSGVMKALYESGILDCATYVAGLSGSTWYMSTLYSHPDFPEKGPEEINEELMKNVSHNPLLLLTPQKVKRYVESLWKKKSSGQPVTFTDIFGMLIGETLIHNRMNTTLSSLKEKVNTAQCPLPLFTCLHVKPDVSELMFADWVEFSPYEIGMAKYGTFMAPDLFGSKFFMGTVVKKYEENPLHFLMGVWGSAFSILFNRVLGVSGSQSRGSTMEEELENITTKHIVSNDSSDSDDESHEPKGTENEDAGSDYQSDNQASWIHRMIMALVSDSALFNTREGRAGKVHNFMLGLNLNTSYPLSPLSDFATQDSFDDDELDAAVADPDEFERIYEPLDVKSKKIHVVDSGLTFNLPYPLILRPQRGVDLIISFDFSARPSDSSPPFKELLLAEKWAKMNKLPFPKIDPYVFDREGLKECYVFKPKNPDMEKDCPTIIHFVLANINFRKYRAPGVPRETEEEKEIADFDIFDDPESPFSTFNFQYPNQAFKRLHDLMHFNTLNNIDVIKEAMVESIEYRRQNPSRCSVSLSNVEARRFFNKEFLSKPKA
In short: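 Percent inhibition at the stated concentration, from the rate of 460 nm emission rise (360 nm excitation) per minute. Reaction started by adding 4 μg enzyme to compound and 60 μM 7-hydroxycoumarinyl 6-heptenoate in Hepes buffer pH 7.5 with 1 mM EDTA.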

[1] = tested on: Rat Carrageenan-Induced Footpad Edema; experiment: Rat Carrageenan-Induced Footpad Edema Test; assay type: in vivo, male Sprague Dawley rats; conditions: footpad volume 3 hours after carrageenan; for inhibition in vivo at 2 mg/kg / inhibition in vivo at 10 mg/kg: po; for inhibition in vivo at 2 mg/kg / inhibition in vivo at 10 mg/kg / PERCENT INHIBITION: PO
[2] = Rattus norvegicus, 3 h, 2 mg/Kg, read-out: PERCENT INHIBITION
[3] = Rattus norvegicus, 3 h, 10 mg/Kg, read-out: PERCENT INHIBITION
[4] = CONCENTRATION 100 micromolar, read-out: PERCENT INHIBITION @

In the case of O=C(O)c1cccc(NC(=O)c2cn(C(c3ccccc3)c3ccccc3)c3ccc(NC(=O)C4CCCC4)cc23)c1 [Example 100, 3-[({1-benzhydryl-5-[(cyclopentylcarbonyl)amino]-1H-indol-3-yl}carbonyl)amino]benzoic acid], the inhibition at 24 µM (cPLA2; read-out: PERCENT INHIBITION @) is reported as 50%, the inhibition at 30 µM (cPLA2; CONCENTRATION 30 micromolar, read-out: PERCENT INHIBITION @) is reported as 50% and the inhibition at 80 µM (cPLA2; CONCENTRATION 80 micromolar, read-out: PERCENT INHIBITION @) is reported as 50%. It also gave an inhibition in vivo at 2 mg/kg [1, 2] of 6.14% and an inhibition in vivo at 10 mg/kg [1, 3] of 20.7%.

For O=C(O)CCNC(=O)c1cn(C(c2ccccc2)c2ccccc2)c2ccc(NC(=O)C3CCCC3)cc12 [Example 101, 3-[({1-benzhydryl-5-[(cyclopentylcarbonyl)amino]-1H-indol-3-yl}carbonyl)amino]propanoic acid], the inhibition at 100 µM (cPLA2; [4]) was 6%, the inhibition at 400 µM (cPLA2; CONCENTRATION 400 micromolar, read-out: PERCENT INHIBITION @) was 49% and the inhibition in vivo at 2 mg/kg [1, 2] was 11.2%. The inhibition in vivo at 10 mg/kg [1, 3] was 12.4%.

With Cc1ccccc1S(=O)(=O)NC(=O)c1cn(C(c2ccccc2)c2ccccc2)c2ccc(NC(=O)C3CCCC3)cc12 [Example 102, N-[1-benzhydryl-3-({[(2-methylphenyl)sulfonyl]amino}carbonyl)-1H-indol-5-yl]cyclopentanecarboxamide] the inhibition at 20 µM (cPLA2; CONCENTRATION 20 micromolar, read-out: PERCENT INHIBITION @) was 31%, the inhibition at 48 µM (cPLA2; CONCENTRATION 48 micromolar, read-out: PERCENT INHIBITION @) was 50% and the inhibition in vivo at 2 mg/kg [1, 2] was 2.56%. For the same compound, the inhibition in vivo at 10 mg/kg [1, 3] was 8.48%.

O=C(O)CCNC(=O)C(=O)c1cn(C(c2ccccc2)c2ccccc2)c2ccc(NC(=O)C3CCCC3)cc12 [Example 103, 3-[(2-{1-benzhydryl-5-[(cyclopentylcarbonyl)amino]-1H-indol-3-yl}-2-oxoacetyl)amino]propanoic acid] showed an inhibition at 100 µM (cPLA2; [4]) of 50%, an inhibition at 104 µM (cPLA2; CONCENTRATION 104 micromolar, read-out: PERCENT INHIBITION @) of 50% and an inhibition in vivo at 2 mg/kg [1, 2] of 16.5%. It also gave an inhibition in vivo at 10 mg/kg [1, 3] of 17.3%.

For O=C(Nc1cccc(C(=O)O)c1)C(=O)c1cn(C(c2ccccc2)c2ccccc2)c2ccc(NC(=O)C3CCCC3)cc12 [Example 104, 3-[(2-{1-benzhydryl-5-[(cyclopentylcarbonyl)amino]-1H-indol-3-yl}-2-oxoacetyl)amino]benzoic acid], the inhibition at 22 µM (cPLA2; CONCENTRATION 22 micromolar, read-out: PERCENT INHIBITION @) was 50%, the inhibition at 24 µM (cPLA2; read-out: PERCENT INHIBITION @) was 50% and the inhibition in vivo at 2 mg/kg [1, 2] was 14.5%. For the same compound, the inhibition in vivo at 10 mg/kg [1, 3] was 6.01%.

For O=C(Cc1cn(Cc2ccc(Cc3ccccc3)cc2)c2ccc(OCc3ccccc3)cc12)Nc1cccc(C(=O)O)c1 [Example 105, 3-({2-[1-(4-benzylbenzyl)-5-(benzyloxy)-1H-indol-3-yl]acetyl}amino)benzoic acid], the inhibition at 2.4 µM (cPLA2; CONCENTRATION 2.4 micromolar, read-out: PERCENT INHIBITION @) was 50%, the inhibition at 7 µM (cPLA2; CONCENTRATION 7 micromolar, read-out: PERCENT INHIBITION @) was 50% and the inhibition at 10 µM (cPLA2; CONCENTRATION 10 micromolar, read-out: PERCENT INHIBITION @) was 74%. For the same compound, the inhibition in vivo at 5 mg/kg ([1]; Rattus norvegicus, iv, 3 h, IV, 5 mg/Kg, read-out: PERCENT INHIBITION) was 1.51%.

In the case of O=C(O)c1cn(C(c2ccccc2)c2ccccc2)c2ccc(NC(=O)C3CCCC3)cc12 [Example 114, 1-benzhydryl-5-[(cyclopentylcarbonyl)amino]-1H-indole-3-carboxylic acid], the inhibition at 100 µM (cPLA2; [4]) is reported as 45%, the inhibition at 152 µM (cPLA2; CONCENTRATION 152 micromolar, read-out: PERCENT INHIBITION @) is reported as 50% and the inhibition at 170 µM (cPLA2; CONCENTRATION 170 micromolar, read-out: PERCENT INHIBITION @) is reported as 50%. It also gave an inhibition in vivo at 2 mg/kg [1, 2] of 12.2% and an inhibition in vivo at 10 mg/kg [1, 3] of 22.2%.

O=C(O)C(=O)c1cn(C(c2ccccc2)c2ccccc2)c2ccc(NC(=O)C3CCCC3)cc12 [Example 115] was tested, and the “PERCENT INHIBITION @” value (cPLA2; CONCENTRATION 50 micromolar) was 89%, the “PERCENT INHIBITION @” value (cPLA2; CONCENTRATION 100 micromolar) was 20% and the “PERCENT INHIBITION @” value (cPLA2; CONCENTRATION 250 micromolar) was 50%. The “PERCENT INHIBITION” value ([1]; 2 mg/Kg) was 1.24% and the “PERCENT INHIBITION” value ([1]; 10 mg/Kg) was 18.46%.

From US6500853B1, “Inhibitors of phospholipase enzymes” (Genetics Institute, LLC, priority 1998, dated 2002)
